In patent US20250195490A1, “ALPHA-METHYLENE AND AMINOMETHYL LACTONES AND LACTAMS FOR TREATMENT OF CLOSTRIDIOIDES DIFFICILE INFECTION (CDI)” (Purdue Research Foundation, priority 2022, published 2025):
Values after ≈ are worked out from the molar mass of the structure shown. Read-outs that look alike come from different tables or passages of the source.

Key:
[1] = test system: MRSA (USA300); experiment: microbe, parasite or virus in culture; type: cell-based, Staphylococcus aureus; conditions: for MIC MRSA (USA300): aerobic, 37° C., at least 18 hours
Protocol: (§1) Method: The minimum inhibitory concentration (MIC) of the compounds and control drugs, linezolid (antibiotic), vancomycin (antibiotic), 5-fluorocytosine (5-FC, antifungal drug), and fluconazole (antifungal drug) was determined using the broth microdilution method according to the guidelines outlined by the Clinical and Laboratory Standards Institute (CLSI) against clinically relevant bacterial (methicillin-resistant Staphylococcus aureus (MRSA), vancomycin-resistant Enterococcus faecalis (VRE), vancomycin-resistant Enterococcus faecium (VRE), Clostridioides difficile and Escherichia coli) and fungal (Candida albicans) strains. A solution equivalent to 0.5 McFarland standard was prepared from each strain and diluted in cation-adjusted Mueller-Hinton broth (for S. aureus and E. coli), tryptone soy broth (for E. faecalis), or brain heart infusion broth (for E. faecium) to achieve a bacterial inoculum of about 5×10^5 CFU/mL. C. difficile strains were cultured in brain heart infusion broth supplemented with hemin and vitamin K. C. albicans was diluted in RPMI medium supplemented with 3-(N-morpholino) propanesulfonic acid to achieve a fungal concentration of about 1.5×10^3 CFU/mL. Compounds and control drugs were added in the first row of the 96-well plates and diluted with media containing bacteria (to achieve a concentration gradient ranging from 128 to 1 μg/mL). For MRSA, VRE, and E. coli strains, plates were then incubated aerobically at 37° C. for at least 18 hours. C. albicans was incubated aerobically at 37° C. for 24 hours. Plates containing C. difficile were incubated anaerobically at […] for 48 hours.

[2] = test system: Clostridioides difficile; experiment: MIC by broth microdilution against Clostridioides difficile (Table 1); type: cell-based; conditions: for MIC Clostridioides difficile: anaerobic, 48 hours, strain BAA-1870
Protocol: as §1

[3] = test system: hypervirulent Clostridioides difficile strains; experiment: MIC against hypervirulent Clostridioides difficile strains; type: cell-based
Protocol: (§2) The antibacterial activity of compounds 48, 50, 51, 61 and 85 against a panel of Clostridioides difficile strains was evaluated. A bacterial solution equivalent to 0.5 McFarland standard was prepared and diluted in brain heart infusion broth supplemented with hemin and vitamin K. Compounds and control drugs were added in the first row of 96-well plates and serially diluted with media containing bacteria (to achieve a concentration gradient ranging from 128 to 1 μg/mL). Plates were then incubated anaerobically at […] for 48 hours.

[4] = test system: clinically important Clostridioides difficile strains; experiment: MIC against clinically important Clostridioides difficile strains; type: cell-based
Protocol: as §2

[5] = test system: L. gasseri; experiment: MIC against human normal gut microbiota: L. gasseri; type: cell-based, Lactobacillus gasseri
Source text: (§3) The activity of the selected lactones against the human gut microbiota was also examined. Microbiota interfere with C. difficile's ability to colonize the gastrointestinal tract and subsequently cause infection. Many antibiotics inhibit/kill the endogenous microflora, which permits enhanced colonization by C. difficile and infection. Three different bacterial species that are present in the gut microflora were used in this experiment; Bifidobacterium (anaerobic Gram-positive bacteria), Bacteroides (anaerobic Gram-negative bacteria) and Lactobacillus (microaerophilic Gram-positive bacteria). Ideal compounds/drugs are those with selective antibacterial activity against C. difficile so as to protect the indigenous microflora present in the GI tract from being damaged/killed (which will exacerbate infections caused by C. difficile).
(§4) Bifidobacterium and Bacteroides were first grown for 48 hours at 37° C., anaerobically, using brain heart infusion supplemented (BHIS) agar (brain heart infusion agar supplemented with hemin, vitamin K and L-cysteine). Lactobacillus was cultivated on MRS agar and incubated in the presence of 5% CO2 for 48 hours at 37° C. Each bacterium was suspended in phosphate-buffered saline (PBS) to achieve 0.5 McFarland standard and subsequently diluted in brain heart infusion supplemented broth (for Bifidobacterium and Bacteroides) or in MRS broth (for Lactobacillus) to achieve a bacterial inoculum of approximately 5×10^5 CFU/mL. Bacteria were then seeded in 96-well plates containing serial dilutions of the compounds and incubated for 48 hours. MICs reported in Table 4 are the minimum concentration of compound/control drug that inhibited the visual growth of bacteria.

[6] = test system: L. casei; experiment: MIC against human normal gut microbiota: L. casei; type: cell-based, Lactobacillus casei
Source text: as §3, §4

[7] = test system: L. reuteri; experiment: MIC against human normal gut microbiota: L. reuteri; type: cell-based, Lactobacillus reuteri
Source text: as §3, §4

[8] = test system: L. crispatus; experiment: MIC against human normal gut microbiota: L. crispatus; type: cell-based, Lactobacillus crispatus
Source text: as §3, §4

[9] = test system: Ba. fragilis; experiment: MIC against human normal gut microbiota: Bacteroides fragilis; type: cell-based
Source text: as §3, §4

[10] = test system: Ba. dorsei; experiment: MIC against human normal gut microbiota: Bacteroides dorsei; type: cell-based
Source text: as §3, §4

[11] = test system: Bi. breve; experiment: MIC against human normal gut microbiota: Bifidobacterium breve; type: cell-based
Source text: as §3, §4

[12] = test system: Bi. longum; experiment: MIC against human normal gut microbiota: Bifidobacterium longum; type: cell-based
Source text: as §3, §4

## COc1cc(C2OC(=O)C(CN3CCCCC3)C2c2ccccc2Br)ccc1OCc1ccccc1 (racemic) [Compound 27]
[1]
  MIC MRSA (USA300): >128 µg/mL
[2]
  MIC Clostridioides difficile: 1 µg/mL (≈ 1.82 µM)
[3]; CD strain 81
  MIC: 2 µg/mL (≈ 3.63 µM)
[3]; CD strain 82
  MIC: 2 µg/mL (≈ 3.63 µM)
[3]; CD strain 83
  MIC: 2 µg/mL (≈ 3.63 µM)
[3]; CD strain 84
  MIC: 4 µg/mL (≈ 7.27 µM)
[3]; CD strain 85
  MIC: 2 µg/mL (≈ 3.63 µM)
[3]; CD strain 86
  MIC: 2 µg/mL (≈ 3.63 µM)
[3]; CD strain 87
  MIC: 2 µg/mL (≈ 3.63 µM)
[3]; CD strain 90
  MIC: 1 µg/mL (≈ 1.82 µM)
[3]; CD strain 49279
  MIC: 2 µg/mL (≈ 3.63 µM)
[3]; CD strain 49287
  MIC: 1 µg/mL (≈ 1.82 µM)
[3]; CD strain 49291
  MIC: 1 µg/mL (≈ 1.82 µM)
[4]; CD strain 16
  MIC: 1 µg/mL (≈ 1.82 µM)
[4]; CD strain 18
  MIC: 2 µg/mL (≈ 3.63 µM)
[4]; CD strain 19
  MIC: 1 µg/mL (≈ 1.82 µM)
[4]; CD strain 1801
  MIC: 1 µg/mL (≈ 1.82 µM)
[4]; CD strain 43255
  MIC: 1 µg/mL (≈ 1.82 µM)
[4]; CD strain P6
  MIC: 2 µg/mL (≈ 3.63 µM)
[4]; CD strain P7
  MIC: 1 µg/mL (≈ 1.82 µM)
[4]; CD strain P13
  MIC: 1 µg/mL (≈ 1.82 µM)
[4]; CD strain P19
  MIC: 2 µg/mL (≈ 3.63 µM)
[5]; L. gasseri HM 407
  MIC: >128 µg/mL
[6]; L. casei HM 334
  MIC: >128 µg/mL
[7]; L. reuteri HM 120
  MIC: >128 µg/mL
[8]; L. crispatus HM 375
  MIC: >128 µg/mL
[8]; L. crispatus HM 421
  MIC: >128 µg/mL
[9]; Ba. fragilis HM 709
  MIC: >128 µg/mL
[9]; Ba. fragilis HM 710
  MIC: >128 µg/mL
[9]; Ba. fragilis HM 711
  MIC: >128 µg/mL
[9]; Ba. fragilis HM 714
  MIC: >128 µg/mL
[10]; Ba. dorsei HM 29
  MIC: >128 µg/mL
[10]; Ba. dorsei HM 717
  MIC: >128 µg/mL
[11]; Bi. breve HM 856
  MIC: >128 µg/mL
[12]; Bi. longum HM 848
  MIC: >128 µg/mL

## C=C1C(=O)O[C@H](c2ccccc2O)[C@@H]1c1cccc(C#N)c1 (racemic) [Compound 50]
[1]
  MIC MRSA (USA300): >128 µg/mL
[2]
  MIC Clostridioides difficile: 8 µg/mL (≈ 27.5 µM)
[3]; CD strain 81
  MIC: >128 µg/mL
[3]; CD strain 82
  MIC: 64 µg/mL (≈ 220 µM)
[3]; CD strain 83
  MIC: 128 µg/mL (≈ 439 µM)
[3]; CD strain 84
  MIC: >128 µg/mL
[3]; CD strain 85
  MIC: >128 µg/mL
[3]; CD strain 86
  MIC: 128 µg/mL (≈ 439 µM)
[3]; CD strain 87
  MIC: 128 µg/mL (≈ 439 µM)
[3]; CD strain 90
  MIC: 128 µg/mL (≈ 439 µM)
[3]; CD strain 49279
  MIC: >128 µg/mL
[3]; CD strain 49287
  MIC: 128 µg/mL (≈ 439 µM)
[3]; CD strain 49291
  MIC: 64 µg/mL (≈ 220 µM)
[4]; CD strain 16
  MIC: 128 µg/mL (≈ 439 µM)
[4]; CD strain 18
  MIC: 32 µg/mL (≈ 110 µM)
[4]; CD strain 19
  MIC: 128 µg/mL (≈ 439 µM)
[4]; CD strain 1801
  MIC: 128 µg/mL (≈ 439 µM)
[4]; CD strain 43255
  MIC: 16 µg/mL (≈ 54.9 µM)
[4]; CD strain P6
  MIC: 128 µg/mL (≈ 439 µM)
[4]; CD strain P7
  MIC: 128 µg/mL (≈ 439 µM)
[4]; CD strain P13
  MIC: 32 µg/mL (≈ 110 µM)
[4]; CD strain P19
  MIC: 32 µg/mL (≈ 110 µM)
[5]; L. gasseri HM 407
  MIC: >128 µg/mL
[6]; L. casei HM 334
  MIC: >128 µg/mL
[7]; L. reuteri HM 120
  MIC: >128 µg/mL
[8]; L. crispatus HM 375
  MIC: >128 µg/mL
[8]; L. crispatus HM 421
  MIC: >128 µg/mL
[9]; Ba. fragilis HM 709
  MIC: >128 µg/mL
[9]; Ba. fragilis HM 710
  MIC: >128 µg/mL
[9]; Ba. fragilis HM 711
  MIC: >128 µg/mL
[9]; Ba. fragilis HM 714
  MIC: >128 µg/mL
[10]; Ba. dorsei HM 29
  MIC: >128 µg/mL
[10]; Ba. dorsei HM 717
  MIC: >128 µg/mL
[11]; Bi. breve HM 856
  MIC: >128 µg/mL
[12]; Bi. longum HM 848
  MIC: >128 µg/mL

## CN[C@H](CC(C)C)C(=O)N[C@H]1C(=O)N[C@@H](CC(N)=O)C(=O)N[C@H]2C(=O)N[C@H]3C(=O)N[C@H](C(=O)N[C@H](C(=O)O)c4cc(O)cc(O)c4-c4cc3ccc4O)[C@H](O)c3ccc(c(Cl)c3)Oc3cc2cc(c3O[C@@H]2O[C@H](CO)[C@@H](O)[C@H](O)[C@H]2O[C@H]2C[C@](C)(N)[C@H](O)[C@H](C)O2)Oc2ccc(cc2Cl)[C@H]1O [Vancomycin, reference compound]
[1]; Staphylococcus aureus, 18 h, read-out: MIC MRSA (USA300)
  MIC: 1 µg/mL (≈ 0.69 µM)
[2]; Clostridioides difficile, BAA1870, 48 h, read-out: MIC Clostridioides difficile
  MIC: 1 µg/mL (≈ 0.69 µM)
[3]; Clostridioides difficile, CD strain 81
  MIC: 0.25 µg/mL (≈ 0.173 µM)
[3]; Clostridioides difficile, CD strain 82
  MIC: 0.5 µg/mL (≈ 0.345 µM)
[3]; Clostridioides difficile, CD strain 83
  MIC: 0.5 µg/mL (≈ 0.345 µM)
[3]; Clostridioides difficile, CD strain 84
  MIC: 0.25 µg/mL (≈ 0.173 µM)
[3]; Clostridioides difficile, CD strain 85
  MIC: 2 µg/mL (≈ 1.38 µM)
[3]; Clostridioides difficile, CD strain 86
  MIC: 0.5 µg/mL (≈ 0.345 µM)
[3]; Clostridioides difficile, CD strain 87
  MIC: 0.5 µg/mL (≈ 0.345 µM)
[3]; Clostridioides difficile, CD strain 90
  MIC: 1 µg/mL (≈ 0.69 µM)
[3]; Clostridioides difficile, CD strain 49279
  MIC: 1 µg/mL (≈ 0.69 µM)
[3]; Clostridioides difficile, CD strain 49287
  MIC: 0.25 µg/mL (≈ 0.173 µM)
[3]; Clostridioides difficile, CD strain 49291
  MIC: 0.25 µg/mL (≈ 0.173 µM)
[4]; Clostridioides difficile, CD strain 16, read-out: MIC
  MIC: 1 µg/mL (≈ 0.69 µM)
[4]; Clostridioides difficile, CD strain 18, read-out: MIC
  MIC: 0.5 µg/mL (≈ 0.345 µM)
[4]; Clostridioides difficile, CD strain 19, read-out: MIC
  MIC: 1 µg/mL (≈ 0.69 µM)
[4]; Clostridioides difficile, CD strain 1801, read-out: MIC
  MIC: 1 µg/mL (≈ 0.69 µM)
[4]; Clostridioides difficile, CD strain 43255, read-out: MIC
  MIC: 1 µg/mL (≈ 0.69 µM)
[4]; Clostridioides difficile, CD strain P6, read-out: MIC
  MIC: 1 µg/mL (≈ 0.69 µM)
[4]; Clostridioides difficile, CD strain P7, read-out: MIC
  MIC: 1 µg/mL (≈ 0.69 µM)
[4]; Clostridioides difficile, CD strain P13, read-out: MIC
  MIC: 1 µg/mL (≈ 0.69 µM)
[4]; Clostridioides difficile, CD strain P19, read-out: MIC
  MIC: 1 µg/mL (≈ 0.69 µM)
[5]; Lactobacillus gasseri
  MIC: > 128 µg/mL
[6]; Lacticaseibacillus casei
  MIC: > 128 µg/mL
[7]; Limosilactobacillus reuteri
  MIC: > 128 µg/mL
[8]; L. crispatus HM 375
  MIC: ≤1 µg/mL
[8]; Lactobacillus crispatus
  MIC: ≤ 1 µg/mL
[9]; Bacteroides fragilis, Ba. fragilis HM 710
  MIC: 16 µg/mL (≈ 11 µM)
[9]; Bacteroides fragilis, Ba. fragilis HM 711
  MIC: 16 µg/mL (≈ 11 µM)
[9]; Bacteroides fragilis, Ba. fragilis HM 714
  MIC: 16 µg/mL (≈ 11 µM)
[9]; Bacteroides fragilis, Ba. fragilis HM 709
  MIC: 64 µg/mL (≈ 44.2 µM)
[10]; Bacteroides, Ba. dorsei HM 717
  MIC: 8 µg/mL (≈ 5.52 µM)
[10]; Bacteroides, Ba. dorsei HM 29
  MIC: 128 µg/mL (≈ 88.3 µM)
[11]; Bifidobacterium breve
  MIC: ≤ 1 µg/mL
[12]; Bifidobacterium longum
  MIC: 64 µg/mL (≈ 44.2 µM)
